# Measurements: PubChem BioAssay (NCI)
#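 Where inhibition never reached the appropriate level, the endpoint shown equals the highest concentration tested. Otherwise, values were interpolated linearly from a five-concentration, 48-hour dose response in 96-well plates. The concentration for 50% growth inhibition is given as GI50. TGI denotes the concentration required for complete inhibition of growth.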
# Assays:
# Assay in all cases: inhibition of tumour cell growth, NCI panel, 48 h
# [1] = test system: NCI-H226 lung
# [2] = test system: HCT-116 colon
# [3] = test system: M14 melanoma
# [4] = test system: HOP-92 NSCLC
# [5] = test system: SK-OV-3 ovarian
# [6] = test system: ACHN renal
# [7] = test system: MCF7 breast
# [8] = test system: T-47D breast
# [9] = test system: SR leukemia
# [10] = test system: SF-539 CNS
# [11] = test system: RPMI-8226 leukemia
# [12] = test system: OVCAR-4 ovarian
# [13] = test system: SW-620 colon
# [14] = test system: OVCAR-5 ovarian
# [15] = test system: K-562 leukemia
# [16] = test system: MDA-MB-231 breast
# [17] = test system: 786-0 renal
# [18] = test system: KM12 colon
# [19] = test system: U251 CNS
# [20] = test system: SK-MEL-28 melanoma
# [21] = test system: HL-60(TB) leukemia
# [22] = test system: A549 NSCLC
# [23] = test system: OVCAR-3 ovarian
# [24] = test system: HOP-62 NSCLC
# [25] = test system: MDA-MB-435
# [26] = test system: CAKI-1 renal
# [27] = test system: LOX IMVI melanoma
# [28] = test system: UACC-257 melanoma
# [29] = test system: HCC-2998 colon
# [30] = test system: COLO 205 colon
# [31] = test system: RXF 393 renal
# [32] = test system: SNB-75 CNS
# [33] = test system: UACC-62 melanoma
# [34] = test system: SN12C renal
# [35] = test system: MOLT-4 leukemia
# [36] = test system: NCI-H522 lung
# [37] = test system: IGROV1 ovarian
# [38] = test system: TK-10 renal
# [39] = test system: BT-549 breast
# [40] = test system: EKVX NSCLC
# [41] = test system: HCT-15 colon
# [42] = test system: NCI-H460 lung
# [43] = test system: HT29 colon
# [44] = test system: UO-31 renal
# [45] = test system: SK-MEL-2 melanoma
# [46] = test system: DU-145 prostate
# [47] = test system: CCRF-CEM leukemia
# [48] = test system: SNB-19 CNS
# [49] = test system: SF-268 CNS
# [50] = test system: NCI-H23 lung
# [51] = test system: MALME-3M melanoma
# [52] = test system: MDA-N
# [53] = test system: SK-MEL-5 melanoma
# [54] = test system: HS 578T breast
# [55] = test system: SF-295 CNS
# [56] = test system: NCI/ADR-RES ovarian
# [57] = test system: PC-3 prostate
# [58] = test system: OVCAR-8 ovarian
# [59] = test system: A498 renal
# [60] = test system: KM20L2 colon
smiles,measurement,setting,value
Cc1nn2c(=O)c([N+](=O)[O-])c(/C=C/c3ccco3)nc2s1,TGI,[1],> 100 µM
same,TGI,[2],> 100 µM
same,TGI,[3],> 100 µM
same,TGI,[4],> 100 µM
same,TGI,[5],> 100 µM
same,TGI,[6],> 100 µM
same,TGI,[7],> 100 µM
same,TGI,[8],> 100 µM
same,TGI,[9],79.2 µM
same,TGI,[10],> 100 µM
same,TGI,[11],> 100 µM
same,TGI,[12],> 100 µM
same,TGI,[13],> 100 µM
same,TGI,[14],> 100 µM
same,TGI,[15],> 100 µM
same,TGI,[16],> 100 µM
same,TGI,[17],> 100 µM
same,TGI,[18],> 100 µM
same,TGI,[19],> 100 µM
same,TGI,[20],> 100 µM
same,TGI,[21],96.2 µM
same,TGI,[22],> 100 µM
same,TGI,[23],> 100 µM
same,TGI,[24],> 100 µM
same,TGI,[25],44.7 µM
same,TGI,[26],> 100 µM
same,TGI,[27],50.4 µM
same,TGI,[28],> 100 µM
same,TGI,[29],> 100 µM
same,TGI,[30],> 100 µM
same,TGI,[31],> 100 µM
same,TGI,[32],> 100 µM
same,TGI,[33],> 100 µM
same,TGI,[34],> 100 µM
same,TGI,[35],> 100 µM
same,TGI,[36],> 100 µM
same,TGI,[37],> 100 µM
same,TGI,[38],> 100 µM
same,TGI,[39],> 100 µM
same,TGI,[40],63.7 µM
same,TGI,[41],> 100 µM
same,TGI,[42],> 100 µM
same,TGI,[43],> 100 µM
same,TGI,[44],> 100 µM
same,TGI,[45],> 100 µM
same,TGI,[46],> 100 µM
same,TGI,[47],> 100 µM
same,TGI,[48],> 100 µM
same,TGI,[49],> 100 µM
same,TGI,[50],> 100 µM
same,TGI,[51],> 100 µM
same,TGI,[52],76.5 µM
same,TGI,[53],90.1 µM
same,TGI,[54],89.1 µM
same,TGI,[55],> 100 µM
same,TGI,[56],> 100 µM
same,TGI,[57],> 100 µM
same,TGI,[58],> 100 µM
CC(=O)[O-].CC(=O)[O-].O=C(N/N=C/c1cc(Cl)cc(Cl)c1O)c1ccncc1.[Ni+2],TGI,[1],> 100 µM
same,TGI,[2],> 100 µM
same,TGI,[3],> 100 µM
same,GI50,[4],17.1 µM
same,TGI,[4],76.9 µM
same,TGI,[5],> 100 µM
same,TGI,[6],> 100 µM
same,TGI,[9],> 100 µM
same,TGI,[10],> 100 µM
same,TGI,[11],> 100 µM
same,TGI,[13],83.5 µM
same,TGI,[14],> 100 µM
same,TGI,[15],> 100 µM
same,TGI,[17],> 100 µM
same,TGI,[59],> 100 µM
same,TGI,[18],> 100 µM
same,TGI,[19],> 100 µM
same,TGI,[20],> 100 µM
same,TGI,[21],45.3 µM
same,TGI,[22],> 100 µM
same,TGI,[23],80.8 µM
same,TGI,[24],> 100 µM
same,TGI,[27],> 100 µM
same,TGI,[28],96.6 µM
same,TGI,[29],> 100 µM
same,TGI,[30],> 100 µM
same,TGI,[31],> 100 µM
same,TGI,[32],> 100 µM
same,TGI,[33],> 100 µM
same,TGI,[34],> 100 µM
same,TGI,[35],> 100 µM
same,TGI,[36],> 100 µM
same,TGI,[37],> 100 µM
same,TGI,[38],> 100 µM
same,TGI,[40],> 100 µM
same,TGI,[41],> 100 µM
same,TGI,[42],> 100 µM
same,TGI,[43],> 100 µM
same,TGI,[44],> 100 µM
same,GI50,[45],46.6 µM
same,TGI,[45],87.4 µM
same,TGI,[47],> 100 µM
same,TGI,[48],> 100 µM
same,TGI,[49],> 100 µM
same,TGI,[50],> 100 µM
same,TGI,[51],> 100 µM
same,TGI,[53],> 100 µM
same,TGI,[55],67.2 µM
same,TGI,[60],> 100 µM
same,TGI,[58],> 100 µM
